≈ marks a conversion by molar mass, not a printed value.
How the values were obtained:
[1] = tested on: MT4; test: Maximum protection (%) of MT-4 cells from HIV-1 (IIIB) induced cytopathogenicity; value ranges from 32-39%; assay type: functional, Homo sapiens
[2] = tested on: MT4; test: Concentration required for protection of MT-4 cells from HIV-2 (ROD) induced cytopathogenicity in MTT assay; assay type: functional, cell-based; details: Homo sapiens
[3] = tested on: MT4; test: Concentration of compound that reduces the viability of mock-infected MT-4 cells by 50%; assay type: functional; details: Homo sapiens
[4] = tested on: MT4; test: Selectivity index towards HIV-1 (IIIB) in MT-4 cells; assay type: functional, Homo sapiens
[5] = tested on: MT4; test: Maximum protection (%) of MT-4 cells from HIV-2 (ROD) induced cytopathogenicity; value ranges from 27-33%; assay type: functional, Homo sapiens
[6] = tested on: MT4; test: Concentration required for protection of MT-4 cells from HIV-1 (IIIB) induced cytopathogenicity in MTT assay; assay type: functional, cell-based; details: Homo sapiens
[7] = tested on: MT4; test: Selectivity index towards HIV-2 (ROD) in MT-4 cells; assay type: functional, Homo sapiens
[8] = tested on: MT4; test: Maximum protection (%) of MT-4 cells from HIV-2 (ROD) induced cytopathogenicity; assay type: functional, Homo sapiens
[9] = tested on: MT4; test: Maximum protection (%) of MT-4 cells from HIV-1 (IIIB) induced cytopathogenicity; value ranges from 8-9%; assay type: functional, Homo sapiens
[10] = tested on: CCRF-CEM; test: Concentration of compound required for protection of CEM cells from HIV-1 (IIIB) induced cytopathogenicity; assay type: functional, cell-based; details: Homo sapiens
[11] = tested on: MT4; test: Maximum protection (%) of MT-4 cells from HIV-1 (IIIB) induced cytopathogenicity; value ranges from 53-59%; assay type: functional, Homo sapiens
[12] = tested on: CCRF-CEM; test: Selectivity index towards HIV-2 (ROD) in CEM cells; assay type: functional, Homo sapiens
[13] = Selectivity index towards HIV-1 (IIIB) in peripheral blood mononuclear cells; assay type: functional, Homo sapiens
[14] = tested on: CCRF-CEM; test: Selectivity index towards HIV-1 (IIIB) in CEM cells; assay type: functional, Homo sapiens
[15] = tested on: CCRF-CEM; test: Concentration of compound required for protection of CEM cells from HIV-2 (ROD) induced cytopathogenicity; assay type: functional, cell-based; details: Homo sapiens
[16] = tested on: MT4; test: Maximum protection (%) of MT-4 cells from HIV-2 (ROD) induced cytopathogenicity; value ranges from 40-43%; assay type: functional, Homo sapiens
[17] = Concentration of compound that reduces the viability of mock-infected peripheral blood mononuclear cells by 50%; assay type: functional; details: Homo sapiens
[18] = tested on: CCRF-CEM; test: Concentration of compound that reduces the viability of mock-infected CEM cells by 50%; assay type: functional; details: Homo sapiens
[19] = Concentration of compound required for reduction of p24 production in HIV-1 (IIIB) infected peripheral blood mononuclear cells; assay type: functional; details: Homo sapiens
[20] = tested on: MT4; test: Maximum protection (%) of MT-4 cells from HIV-1 (IIIB) induced cytopathogenicity; value ranges from 3-8%; assay type: functional, Homo sapiens
[21] = tested on: MT4; test: Maximum protection (%) of MT-4 cells from HIV-2 (ROD) induced cytopathogenicity; value ranges from 40-42%; assay type: functional, Homo sapiens
[22] = tested on: MT4; test: Maximum protection (%) of MT-4 cells from HIV-1 (IIIB) induced cytopathogenicity; value ranges from 29-37%; assay type: functional, Homo sapiens
[23] = tested on: MT4; test: Maximum protection (%) of MT-4 cells from HIV-1 (IIIB) induced cytopathogenicity; value ranges from 2-14%; assay type: functional, Homo sapiens
[24] = tested on: MT4; test: Maximum protection (%) of MT-4 cells from HIV-1 (IIIB) induced cytopathogenicity; value ranges from 4-13%; assay type: functional, Homo sapiens
[25] = tested on: MT4; test: Maximum protection (%) of MT-4 cells from HIV-1 (IIIB) induced cytopathogenicity; value ranges from 14-20%; assay type: functional, Homo sapiens
[26] = tested on: MT4; test: Maximum protection (%) of MT-4 cells from HIV-1 (IIIB) induced cytopathogenicity; value ranges from 5-6%; assay type: functional, Homo sapiens
[27] = tested on: MT4; test: Maximum protection (%) of MT-4 cells from HIV-1 (IIIB) induced cytopathogenicity; value ranges from 16-49%; assay type: functional, Homo sapiens
[28] = tested on: MT4; test: Maximum protection (%) of MT-4 cells from HIV-2 (ROD) induced cytopathogenicity; value ranges from 21-26%; assay type: functional, Homo sapiens

SMILES	EC50 [2] [µg/mL]	CC50 [3] [µg/mL]	Selectivity index [4]	EC50 [6] [µg/mL]	Selectivity index [7]	Protection [8] [%]	further results
Cn1cc(C(=O)O)c(=O)c2cnc(N3CCN(c4ccccn4)CC3)cc21	> 67.4	67.4 (≈ 184 µM)	<1	> 67.4	<1	–	Protection [1]: <39%; Protection [5]: <33%
COc1ccccc1N1CCN(c2ccc3c(=O)c(C(=O)O)cn(C)c3c2)CC1	> 125	> 125	–	> 125	–	6	Protection [9]: <9%
Cn1cc(C(=O)O)c(=O)c2ccc(N3CCN(c4ccccn4)CC3)cc21	> 65.5	65.5 (≈ 180 µM)	3.4	19.2 (≈ 52.7 µM)	<1	–	EC50 [10]: 1.2 µg/mL (≈ 3.29 µM); Protection [11]: <59%; Selectivity index [12]: >56; Selectivity index [13]: >73; Selectivity index [14]: >83; EC50 [15]: 1.8 µg/mL (≈ 4.94 µM); Protection [16]: <43%; CC50 [17]: > 100 µg/mL; CC50 [18]: > 100 µg/mL; EC50 [19]: 1.37 µg/mL (≈ 3.76 µM)
Cn1cc(C(=O)O)c(=O)c2cc([N+](=O)[O-])c(N3CCN(c4ccccn4)CC3)c(F)c21	> 29.6	29.6 (≈ 69.2 µM)	<1	> 29.6	<1	4	Protection [20]: <8%
Cn1cc(C(=O)O)c(=O)c2cc(N)c(N3CCN(c4ccccn4)CC3)c(F)c21	> 6.08	6.08 (≈ 15.3 µM)	<1	> 6.08	<1	–	Protection [21]: <42%; Protection [22]: <37%
Nc1cc2c(=O)c(C(=O)O)cn(C3CCN(Cc4ccccc4)CC3)c2cc1N1CCN(c2ccccn2)CC1	> 2.36	2.36 (≈ 4.38 µM)	<1	> 2.36	<1	5	Protection [23]: <14%
Cn1cc(C(=O)O)c(=O)c2cc([N+](=O)[O-])c(N3CCN(c4ccccn4)CC3)cc21	> 10.1	10.1 (≈ 24.6 µM)	<1	> 10.1	<1	5	Protection [24]: <13%
Nc1cc2c(=O)c(C(=O)O)cn(-c3nc4ccccc4s3)c2cc1N1CCN(c2ccccn2)CC1	> 9.13	9.13 (≈ 18.3 µM)	<1	> 9.13	<1	21	Protection [25]: <20%
Nc1cc2c(=O)c(C(=O)O)cn(-c3ccc(-c4ccccc4)cc3)c2cc1N1CCN(c2nc3ccccc3s2)CC1	> 0.67	0.67 (≈ 1.17 µM)	<1	> 0.67	<1	1	Protection [26]: <6%
COc1c(N2CCN(c3ccccn3)CC2)c(N)cc2c(=O)c(C(=O)O)cn(C)c12	> 4.28	4.28 (≈ 10.5 µM)	<1	> 4.28	<1	–	Protection [27]: <49%; Protection [28]: <26%

— ChEMBL document CHEMBL1137226, “Structure modifications of 6-aminoquinolones with potent anti-HIV activity” (J Med Chem, 2004)
